The numbers were not newly measured in US20090143362A1, “CARBAMAZEPINE FORMULATIONS” (priority 2007, published 2009), which cites them from elsewhere.

Structures are written as SMILES.

For data set [1] the following is noted: blood level.
For data set [2] the following is noted: in presence of water, after 1 hour, X-ray powder diffraction.

For `NC(=O)N1c2ccccc2C=Cc2ccccc21` [Carbamazepine, 5H-dibenz-[b,f]azepine-5-carboxamide], the water solubility result was “poorly water-soluble”. Further, the therapeutic range in data set [1] was 4 to 12 µg/mL. Also, the “conversion to carbamazepine dihydrate complete” value in data set [2] is reported as 95%.
